Test results: patent EP4603105A1, “PHARMACEUTICAL COMPOSITION CONTAINING CYCLIC COMPOUND HAVING SELECTIVE KRAS INHIBITORY EFFECT AGAINST HRAS AND NRAS” (CHUGAI SEIYAKU KABUSHIKI KAISHA, priority 2022, dated 2024)
Where a SMILES comes first, the peptide text is derived from it. Bridges are numbered along the chain shown (N, C = ends). [ ]: non-standard residue; d: D form. The star is where a group is joined. hPhe(3-Cl-4-CF3) = N[C@@H](CCc1ccc(C(F)(F)F)c(Cl)c1)C(=O)O; NPrPhe(4-CF3) = CCCN[C@@H](Cc1ccc(C(F)(F)F)cc1)C(=O)O; NMeGly(cPent) = CN[C@H](C(=O)O)C1CCCC1; Hyp = O=C(O)[C@@H]1C[C@@H](O)CN1; NMeD = CN[C@@H](CC(=O)O)C(=O)O; NMeL = CN[C@@H](CC(C)C)C(=O)O; NMeS = CN[C@@H](CO)C(=O)O; Morpholide = C1CN(*)CCO1; Ac5c = NC1(C(=O)O)CCCC1; Aze = O=C(O)[C@@H]1CCN1; Sar = CNCC(=O)O

Tests used:
[1] = biological target: GDP-bound NRAS wild-type protein (Homo sapiens, UniProt P01111); experiment: Binding to NRAS by surface plasmon resonance (SPR), KD and KD ratio to KRAS
Sequence of GDP-bound NRAS wild-type protein (P01111 whole entry): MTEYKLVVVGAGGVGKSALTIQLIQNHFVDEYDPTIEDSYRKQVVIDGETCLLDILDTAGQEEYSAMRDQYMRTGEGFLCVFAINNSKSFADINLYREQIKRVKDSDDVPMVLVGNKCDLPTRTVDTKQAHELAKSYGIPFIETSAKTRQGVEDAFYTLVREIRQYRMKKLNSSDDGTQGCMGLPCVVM
In short: (§1)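 Recombinant RAS proteins bearing a biotinylated Avi tag and loaded with GDP served as the captured ligand, recaptured fresh every cycle. Binding responses were referenced to an uncoated surface and a buffer-only blank cycle. Dissociation constants were obtained by 1:1 model fitting at 30°C.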

HRAS wild-type protein = HRAS wild-type protein (Homo sapiens, UniProt P01112); experiment: Binding to HRAS by surface plasmon resonance (SPR), KD and KD ratio to KRAS
Sequence of HRAS wild-type protein (P01112 whole entry): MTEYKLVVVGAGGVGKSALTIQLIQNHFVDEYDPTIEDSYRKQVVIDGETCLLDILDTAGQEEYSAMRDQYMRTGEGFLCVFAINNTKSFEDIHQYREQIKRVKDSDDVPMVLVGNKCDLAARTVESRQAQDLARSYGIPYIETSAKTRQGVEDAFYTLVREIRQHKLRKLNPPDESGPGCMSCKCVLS
In short: as §1

[2] = system: human lung cancer strain NCI-H441; format: cell-based
In short: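 Signal came from […] measured per well once the reagent was added. Beforehand, cells were cultured at 37°C and 5% carbon dioxide on a compound series serially diluted in dimethyl sulfoxide.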

[3] = ratio of KD value for GDP-bound NRAS wild-type protein to KD value for KRAS (SPR)
[4] = ratio of KD value for HRAS wild-type protein to KD value for KRAS (SPR)
[5] = ratio of the KD value with respect to GDP-bound NRAS wild-type protein to the KD value with respect to KRAS
[6] = ratio of the KD value with respect to HRAS wild-type protein to the KD value with respect to KRAS
[7] = ratio of KD for GDP-bound NRAS wild-type protein to KD for KRAS
[8] = ratio of KD for HRAS wild-type protein to KD for KRAS

| SMILES | IC50 [2] [nM] | NRAS /KRAS [1, 3] | HRAS /KRAS (HRAS wild-type protein; [4]) | NRAS /KRAS [1, 5] | HRAS /KRAS (HRAS wild-type protein; [6]) | NRAS /KRAS [1, 7] | HRAS /KRAS (HRAS wild-type protein; [8]) |
| --- | --- | --- | --- | --- | --- | --- | --- |
| CCCN1C(=O)[C@@H]2CCN2C(=O)CN(C)C(=O)[C@H]([C@@H](C)CC)NC(=O)[C@H](CC(C)C)N(C)C(=O)C[C@@H](C(=O)N2CCOCC2)N(C)C(=O)[C@H](C2CCCC2)N(C)C(=O)C2(CCCC2)NC(=O)[C@@H]2C[C@@H](OCC)CN2C(=O)[C@H](CCc2ccc(C(F)(F)F)c(Cl)c2)NC(=O)CN(C)C(=O)[C@@H]1Cc1ccc(C(F)(F)F)cc1 [PP0410] ([NMeL]I[Sar][Aze][NPrPhe(4-CF3)][Sar][hPhe(3-Cl-4-CF3)][Hyp](Et)[Ac5c][NMeGly(cPent)][NMeD]-Morpholide; lactam N-11) | 1.4 | – | – | C (A compound having a KD ratio of 0.1 or more and less than 3 is denoted as C) | B (a compound having 3 or more and less than 10 is denoted as B) | – | – |
| CCCN1C(=O)CN(C)C(=O)CN(C)C(=O)[C@H]([C@@H](C)CC)NC(=O)[C@H](CC(C)C)N(C)C(=O)C[C@@H](C(=O)N2CCOCC2)N(C)C(=O)[C@H](C2CCCC2)N(C)C(=O)C2(CCCC2)NC(=O)[C@H](COC)N(C)C(=O)[C@H](CCc2ccc(C(F)(F)F)c(Cl)c2)NC(=O)CN(C)C(=O)[C@@H]1Cc1ccc(C(F)(F)F)cc1 [PP1920] ([NMeL]I[Sar][Sar][NPrPhe(4-CF3)][Sar][hPhe(3-Cl-4-CF3)][NMeS](Me)[Ac5c][NMeGly(cPent)][NMeD]-Morpholide; lactam N-11) | 32.4 | – | – | B (a compound having 3 or more and less than 10 is denoted as B) | C (A compound having a KD ratio of 0.1 or more and less than 3 is denoted as C) | – | – |
| CCO[C@@H]1C[C@H]2C(=O)NC3(CCC3)C(=O)N(C)[C@@H](C(C)(C)C)C(=O)N(C)[C@H](C(=O)N3CCOCC3)CC(=O)N(C)[C@@H](CC(C)C)C(=O)N[C@@H]([C@@H](C)CC)C(=O)N(C)CC(=O)N(C)[C@H]3CCCCCN(C3=O)[C@@H](Cc3ccc(C(F)(F)F)cc3)C(=O)N(C)CC(=O)N[C@@H](CCc3cc(F)c(C(F)(F)F)c(F)c3)C(=O)N2C1 [PP0823] | 130 | – | – | – | – | A (a compound having 10 or more and less than 20 is denoted as A) | B (a compound having 3 or more and less than 10 is denoted as B) |
| CCO[C@@H]1C[C@H]2C(=O)NC3(CC(C)(C)C3)C(=O)N(C)[C@@H](C(CC)CC)C(=O)N(C)[C@H](C(=O)N(C)C)CC(=O)N(C)[C@@H](C(C)C)C(=O)N[C@@H]([C@@H](C)CC)C(=O)N(C)CC(=O)N(C)[C@H]3C/C=C\CCN(C3=O)[C@@H](Cc3ccc(C(F)(F)F)cc3)C(=O)N(C)CC(=O)N[C@@H](CCc3cc(F)c(C(F)(F)F)c(F)c3)C(=O)N2C1 [PP2135] | 15.7 | – | – | AA (a compound having 20 or more is denoted as AA) | A (a compound having 10 or more and less than 20 is denoted as A) | – | – |
| CCO[C@@H]1C[C@H]2C(=O)N(C)C3(CCC3)C(=O)N(C)[C@@H](C3CCCC3)C(=O)N(C)[C@H](C(=O)N(C)C)CC(=O)N(C)[C@@H](CC)C(=O)N[C@@H]([C@@H](C)CC)C(=O)N(C)CC(=O)N(C)[C@H]3C/C=C\CCN(C3=O)[C@@H](Cc3ccc(C)cc3)C(=O)N(C)CC(=O)N[C@@H](CCc3cc(F)c(C(F)(F)F)c(F)c3)C(=O)N2C1 [PP1781] | 2.1 | A (a compound having 10 or more and less than 20 is denoted as A) | B (a compound having 3 or more and less than 10 is denoted as B) | – | – | – | – |
| CC[C@H](C)[C@@H]1NC(=O)[C@H](CC(C)C)N(C)C(=O)C[C@@H](C(=O)N(C)C)N(C)C(=O)[C@H](C2CCCC2)N(C)C(=O)C2(CCCC2)NC(=O)[C@@H]2CCCN2C(=O)[C@H](CCc2ccc(C(F)(F)F)c(Cl)c2)NC(=O)CN(C)C(=O)[C@H](Cc2ccc(C)cc2)N2CC/C=C(/C)C[C@@H](C2=O)N(C)C(=O)CN(C)C1=O [PP0616] | 73.8 | – | – | B (a compound having 3 or more and less than 10 is denoted as B) | B (a compound having 3 or more and less than 10 is denoted as B) | – | – |
| CCO[C@@H]1C[C@H]2C(=O)NC3(CC(C)(C)C3)C(=O)N(C)[C@@H](C3CCCC3)C(=O)N3CCC[C@@H]3CC(=O)N(C)[C@@H](CC3CC3)C(=O)N[C@@H]([C@@H](C)CC)C(=O)N(C)CC(=O)N(C)[C@H]3C/C=C\CCN(C3=O)[C@@H](Cc3ccc(C(F)(F)F)cc3)C(=O)N(C)CC(=O)N[C@@H](CCc3cc(F)c(C(F)(F)F)c(F)c3)C(=O)N2C1 [PP1611] | 28 | B (a compound having 3 or more and less than 10 is denoted as B) | B (a compound having 3 or more and less than 10 is denoted as B) | – | – | – | – |
| CCC[C@H]1C(=O)N[C@@H]([C@@H](C)CC)C(=O)N(C)CC(=O)N(C)[C@H]2C/C=C\CCN(C2=O)[C@@H](Cc2ccc(C)cc2)C(=O)N(C)CC(=O)N[C@@H](CCc2ccc(C(F)(F)F)c(OC)c2)C(=O)N2CC3(CC3)C[C@H]2C(=O)NC2(CC(C)(C)C2)C(=O)N(C)[C@@H](CC(F)(F)F)C(=O)N(C)[C@H](C(=O)N(C)C)CC(=O)N1C [PP3012] | 74.8 | – | – | – | – | A (a compound having 10 or more and less than 20 is denoted as A) | A (a compound having 10 or more and less than 20 is denoted as A) |
| CC[C@H](C)[C@@H]1NC(=O)[C@H](CC2CCC2)N(C)C(=O)C[C@@H](C(=O)N(C)C)N(C)C(=O)[C@H](C2CCCC2)N(C)C(=O)C2(CCC2)N(C)C(=O)[C@@H]2CCCN2C(=O)[C@H](CCc2cc(F)c(C(F)(F)F)c(F)c2)NC(=O)CN(C)C(=O)[C@H](Cc2ccc(C)cc2)N2CC/C=C\C[C@@H](C2=O)N(C)C(=O)CN(C)C1=O [PP1802] | 5.8 | A (a compound having 10 or more and less than 20 is denoted as A) | B (a compound having 3 or more and less than 10 is denoted as B) | – | – | – | – |
| CCC[C@H]1C(=O)N[C@@H]([C@@H](C)CC)C(=O)N(C)CC(=O)N(C)[C@H]2C/C=C\CCN(C2=O)[C@@H](Cc2ccc(C)cc2)C(=O)N(C)CC(=O)N[C@@H](CCc2ccc(C(F)(F)F)c(OC)c2)C(=O)N2C[C@@H](C)C[C@H]2C(=O)NC2(CC(C)(C)C2)C(=O)N(C)[C@@H](C2CCCC2)C(=O)N(C)[C@H](C(=O)N(C)CC)CC(=O)N1C [PP1889] | 12.5 | A (a compound having 10 or more and less than 20 is denoted as A) | B (a compound having 3 or more and less than 10 is denoted as B) | – | – | – | – |

Further lines, with some results ahead:

| IC50 [2] [nM] | SMILES | NRAS /KRAS [1, 3] | HRAS /KRAS (HRAS wild-type protein; [4]) | NRAS /KRAS [1, 5] | HRAS /KRAS (HRAS wild-type protein; [6]) | NRAS /KRAS [1, 7] | HRAS /KRAS (HRAS wild-type protein; [8]) |
| --- | --- | --- | --- | --- | --- | --- | --- |
| 7.9 | CC[C@H](C)[C@@H]1NC(=O)[C@H](CC2CC2)N(C)C(=O)C[C@@H](C(=O)N(C)C)N(C)C(=O)[C@H](C2CCCC2)N(C)C(=O)C2(CC(C)(C)C2)NC(=O)[C@@H]2CC(F)(F)CN2C(=O)[C@H](CCc2cc(F)c(C(F)(F)F)c(F)c2)NC(=O)CN(C)C(=O)[C@H](Cc2ccc(C(F)(F)F)cc2)N2CC/C=C\C[C@@H](C2=O)N(C)C(=O)CN(C)C1=O [PP1713] | A (a compound having 10 or more and less than 20 is denoted as A) | A (a compound having 10 or more and less than 20 is denoted as A) | – | – | – | – |
| 2 | CC[C@H](C)[C@@H]1NC(=O)[C@H](CC2CCCC2)N(C)C(=O)C[C@@H](C(=O)N(C)C)N(C)C(=O)[C@H](C2CCCC2)N(C)C(=O)C2(CCC2)NC(=O)[C@@H]2C[C@@H](F)CN2C(=O)[C@H](CCc2cc(F)c(C(F)(F)F)c(F)c2)NC(=O)CN(C)C(=O)[C@H](Cc2ccc(C(F)(F)F)cc2)N2CC/C=C\C[C@@H](C2=O)N(C)C(=O)CN(C)C1=O [PP1502] | A (a compound having 10 or more and less than 20 is denoted as A) | A (a compound having 10 or more and less than 20 is denoted as A) | – | – | – | – |
| 24.7 | CC[C@H](C)[C@@H]1NC(=O)[C@H](CC(C)C)N(C)C(=O)C[C@@H](C(=O)N(C)C)N(C)C(=O)[C@H](C2CCCC2)N(C)C(=O)C2(CCC2)NC(=O)[C@@H]2[C@@H](OCC(F)F)CCN2C(=O)[C@H](CCc2cc(F)c(C(F)(F)F)c(F)c2)NC(=O)CN(C)C(=O)[C@H](Cc2ccc(C(F)(F)F)cc2)N2CC/C=C\C[C@@H](C2=O)N(C)C(=O)CN(C)C1=O [PP1534] | AA (a compound having 20 or more is denoted as AA) | A (a compound having 10 or more and less than 20 is denoted as A) | – | – | – | – |
| 4.3 | C#CC[C@H]1C(=O)N[C@@H]([C@@H](C)CC)C(=O)N(C)CC(=O)N(C)[C@H]2C/C=C\CCN(C2=O)[C@@H](Cc2ccc(C(F)(F)F)cc2)C(=O)N(C)CC(=O)N[C@@H](CCc2cc(F)c(C(F)(F)F)c(F)c2)C(=O)N2C[C@H](F)C[C@H]2C(=O)NC2(CC(C)(C)C2)C(=O)N(C)[C@@H](C2CCCC2)C(=O)N(C)[C@H](C(=O)N(C)CCC)CC(=O)N1C [PP1692] | AA (a compound having 20 or more is denoted as AA) | A (a compound having 10 or more and less than 20 is denoted as A) | – | – | – | – |
| 6.2 | CCO[C@@H]1C[C@H]2C(=O)NC3(CC(C)(C)C3)C(=O)N(C)[C@@H](C3CCCC3)C(=O)N(C)[C@H](C(=O)N(C)C)CC(=O)N(C)[C@@H](CC3CC3)C(=O)N[C@@H]([C@@H](C)CC)C(=O)N(C)CC(=O)N(C)[C@H]3C/C=C\CCN(C3=O)[C@@H](Cc3ccc(C(F)(F)F)cc3)C(=O)N(C)CC(=O)N[C@@H](CCc3cc(F)c(Cl)c(F)c3)C(=O)N2C1 [PP1759] | A (a compound having 10 or more and less than 20 is denoted as A) | A (a compound having 10 or more and less than 20 is denoted as A) | – | – | – | – |
